Starred links: 1 amine or outer side, 2 acyl side, 3 side chain; linkers in the order of their positions; H or OH if unused. Non-standard residues stand in square brackets, D forms with d. Residues, ends and D or L forms follow the SMILES beside them. No end group written: not given here. *: point of attachment. X1 = NC(=O)C[C@@H](C(=O)[*:2])N(C[C@@H](N)Cc1ccc(O)cc1)[*:1]; Butyryl(4-indol-3-yl) = O=C(CCCc1c[nH]c2ccccc12)*; Tyr(Me) = COc1ccc(C[C@H](N[*:1])C(=O)[*:2])cc1; Acetyl(2-(4-imidazolyl)) = O=C(Cc1c[nH]cn1)*; 2Nal = N[C@@H](Cc1ccc2ccccc2c1)C(=O)O; Arg(Me) = CNC(=N)NCCC[C@H](N)C(=O)O; d3Pal = N[C@H](Cc1cccnc1)C(=O)O; d4Pal = N[C@H](Cc1ccncc1)C(=O)O; 2Thi = N[C@@H](Cc1cccs1)C(=O)O; Cha = N[C@@H](CC1CCCCC1)C(=O)O; Tos = Cc1ccc(S(=O)(=O)*)cc1; Bz = O=C(c1ccccc1)*; GABA = NCCCC(=O)O; azaGly = NNC(=O)O
What was measured:
hOT7T175 [1] = molecular target: T1, hOT7T175 (Homo sapiens, UniProt Q969F8); test: Intracellular Ca ion level-increasing activity using FLIPR (180 seconds; specific activity to Metastin (1-54)); assay type: cell-based; settings: hOT7T175/CHO, change in intracellular calcium ion level for 180 seconds, Tables 21-23
T1 construct: expressed in transfected cells
Method: In accordance with the method described in JPA 2000-312590, the intracellular Ca ion level-increasing activity was measured using FLIPR. […]
The intracellular Ca ion level-increasing activity of the synthetic peptide in hOT7T175/CHO was determined using FLIPR (Molecular Devices, Inc.).
hOT7T175/CHO was subcultured in DMEM supplemented with 10% dialyzed fetal bovine serum (hereinafter abbreviated as dFBS) and provided for the experiment (hereinafter abbreviated as 10% dFBS/DMEM). The hOT7T175/CHO was suspended in 10% dFBS-DMEM in 15×10^4 cells/ml. The suspension was inoculated on a 96-well plate for FLIPR (Black Plate Clear Bottom, Coster, Inc.) at 200 μl each (3.0×10^4 cells/200 μl), followed by incubation at 37° C. overnight in a 5% CO2 incubator. The cells thus incubated were used (hereinafter simply referred to as the cell plate). Then, 21 ml of HANKS/HBSS (9.8 g of HANKS', 0.35 g of sodium hydrogencarbonate, 20 ml of 1M HEPES; after adjusting the pH to 7.4 with 1N sodium hydroxide, the mixture was subjected to sterilization through a filter), 210 μl of […] Probenecid and 210 μl of fetal bovine serum (FBS) were mixed (HANKS/HBSS-Probenecid-FBS).
Furthermore, 2 vials of Fluo3-AM (50 μg/vial) were dissolved in 21 μL of dimethylsulfoxide and 21 μL of 20% Pluronic acid. The resulting solution was added to and mixed with 10 ml of HANKS/HBSS-Probenecid-FBS described above. After the culture medium was removed, the mixture was dispensed onto the cell plate in 100 μl each/well, followed by incubation at 37° C. for an hour in a 5% CO2 incubator (pigment loading). The peptide was dissolved in dimethylsulfoxide in 1×10^−3 M. The peptide solution was diluted with HANKS'/HBSS containing 2.5 mM Probenecid and 0.2% BSA. The dilution was transferred to a 96-well plate for FLIPR (V-Bottom plate, Coster, Inc.) (hereinafter referred to as a sample plate). After completion of the pigment loading onto the cell plate, the cell plate washed 4 times with wash buffer, which was obtained by adding 2.5 mM Probenecid to HANKS'/HBSS, using a plate washer to leave 100 μL of wash buffer after the washing. The cell plate and the sample plate were set in FLIPR and 0.05 ml of a sample from the sample plate was automatically transferred to the cell plate with the FLIPR device to promote the cell response. A change in intracellular calcium ion level for 180 seconds was measured with passage of time.

hOT7T175 [2] = molecular target: T2, hOT7T175 (Homo sapiens, UniProt Q969F8, L364H); assay type: cell-based; settings: hOT7T175/CHO, FLIPR, evaluation for 40 seconds after initiation of the reaction
T2 construct: expressed in transfected cells
T2 sequence (Q969F8 whole entry L364H): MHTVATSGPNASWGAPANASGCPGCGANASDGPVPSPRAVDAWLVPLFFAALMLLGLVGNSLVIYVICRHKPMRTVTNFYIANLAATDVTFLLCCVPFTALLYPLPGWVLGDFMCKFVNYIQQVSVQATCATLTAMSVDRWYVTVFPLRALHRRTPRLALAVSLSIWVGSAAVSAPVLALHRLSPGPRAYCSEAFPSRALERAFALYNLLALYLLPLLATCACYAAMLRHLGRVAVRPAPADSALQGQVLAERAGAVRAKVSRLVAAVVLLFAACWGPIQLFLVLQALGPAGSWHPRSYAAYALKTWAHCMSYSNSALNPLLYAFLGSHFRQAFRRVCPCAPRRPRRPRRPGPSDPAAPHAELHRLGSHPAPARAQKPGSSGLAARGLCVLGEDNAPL
Method: The intracellular Ca ion level-increasing activity was measured using FLIPR as in TEST EXAMPLE 2.

T1 sequence (Q969F8 whole entry L364H): as above

## 3-Phenylpropionyl-AzaGly-Leu-Arg(Me)-Phe-NH2 [Compound No. 362]
hOT7T175 [1]
  intracellular Ca ion level-increasing activity [specific activity to Metastin (1-54)]: 1/10

## CNC(=N)NCCC[C@H](NC(=O)[C@H](CC(C)C)NC(=O)NNC(=O)[C@H](Cc1ccccc1)NC(=O)[C@H](CO)NC(=O)[C@H](CC(N)=O)NC(=O)[C@@H](Cc1c[nH]c2ccccc12)NC(=O)[C@H](CC(N)=O)NC[C@@H](N)Cc1ccc(O)cc1)C(=O)N[C@@H](Cc1ccccc1)C(N)=O [Compound No. 300, TyrΨ(CH2NH)Asn-D-Trp-Asn-Ser-Phe-AzaGly-Leu-Arg(Me)-Phe-NH2] (H-[X1][dW]NSF[azaGly]L[Arg(Me)]F-NH2)
hOT7T175 [1]
  intracellular Ca ion level-increasing activity [specific activity to Metastin (1-54)]: 5

## CNC(=N)NCCC[C@H](NC(=O)[C@H](CC(C)C)NC(=O)NNC(=O)[C@H](Cc1ccccc1)NC(=O)[C@H](CO)NC(=O)[C@H](CC(N)=O)NC(=O)Cc1c[nH]cn1)C(=O)N[C@@H](Cc1ccccc1)C(N)=O [Compound No. 323, 4-Imidazoleacetyl-Asn-Ser-Phe-AzaGly-Leu-Arg(Me)-Phe-NH2] ({Acetyl(2-(4-imidazolyl))}-NSF[azaGly]L[Arg(Me)]F-NH2)
hOT7T175 [1]
  intracellular Ca ion level-increasing activity [specific activity to Metastin (1-54)]: 1

## Benzoyl-Pya(4)-AzaGly-Leu-Arg(Me)-Trp-NH2 [Compound No. 442]
hOT7T175 [1]
  intracellular Ca ion level-increasing activity [specific activity to Metastin (1-54)]: ½

## 4-Pyridinecarbonyl-Phe-AzaGly-Leu-Har-Trp-NH2 [Compound No. 478]
hOT7T175 [1]
  intracellular Ca ion level-increasing activity [specific activity to Metastin (1-54)]: ⅓

## 2-Azetidinecarbonyl-Phe-AzaGly-Leu-Arg(Me)-Trp-NH2 [Compound No. 466]
hOT7T175 [1]
  intracellular Ca ion level-increasing activity [specific activity to Metastin (1-54)]: ⅓

## CNC(=N)NCCC[C@H](NC(=O)[C@H](CC(C)C)NC(=O)NNC(=O)[C@H](Cc1ccccc1)NC(=O)[C@H](CO)NC(=O)[C@H](CC(N)=O)NC(=O)[C@@H](N)Cc1c[nH]c2ccccc12)C(=O)N[C@@H](Cc1ccccc1)C(N)=O [Compound No. 271, Trp-Asn-Ser-Phe-AzaGly-Leu-Arg(Me)-Phe-NH2] (H-WNSF[azaGly]L[Arg(Me)]F-NH2)
hOT7T175 [1]
  intracellular Ca ion level-increasing activity [specific activity to Metastin (1-54)]: 1

## CNC(=N)NCCC[C@H](NC(=O)[C@H](CC(C)C)NC(=O)NNC(=O)[C@H](Cc1ccccc1)NC(=O)[C@H](CO)NC(=O)[C@H](CC(N)=O)NC(=O)[C@H](CC1CCCCC1)NC(=O)[C@@H](CC(N)=O)NC(=O)[C@H](N)Cc1ccncc1)C(=O)N[C@@H](Cc1ccccc1)C(N)=O [Compound No. 306, D-Pya(4)-D-Asn-Cha-Asn-Ser-Phe-AzaGly-Leu-Arg(Me)-Phe-NH2] (H-[d4Pal][dN][Cha]NSF[azaGly]L[Arg(Me)]F-NH2)
hOT7T175 [1]
  intracellular Ca ion level-increasing activity [specific activity to Metastin (1-54)]: 2

## 2-Pyridinecarbonyl-Phe-AzaGly-Leu-Arg(Me)-Trp-NH2 [Compound No. 435]
hOT7T175 [1]
  intracellular Ca ion level-increasing activity [specific activity to Metastin (1-54)]: 10

## Propionyl-Phe-AzaGly-Leu-Arg(Me)-Trp-NH2 [Compound No. 437]
hOT7T175 [1]
  intracellular Ca ion level-increasing activity [specific activity to Metastin (1-54)]: 2

## Benzyl-Phe-AzaGly-Leu-Arg(Me)-Trp-NH2 [Compound No. 450]
hOT7T175 [1]
  intracellular Ca ion level-increasing activity [specific activity to Metastin (1-54)]: ⅓

## (2S)-2-acetoxy-3-phenylpropionyl-AzaGly-Leu-Arg(Me)-Trp-NH2 [Compound No. 373]
hOT7T175 [1]
  intracellular Ca ion level-increasing activity [specific activity to Metastin (1-54)]: 2

## CNC(=N)NCCC[C@H](NC(=O)[C@H](CC(C)C)NC(=O)NNC(=O)[C@H](Cc1ccccc1)NC(=O)[C@H](CO)NC(=O)[C@H](CC(N)=O)NC(=O)[C@H](Cc1c[nH]c2ccccc12)NC(=O)[C@H](CC(N)=O)NC[C@@H](N)Cc1ccc(O)cc1)C(=O)N[C@@H](Cc1ccccc1)C(N)=O [Compound No. 299, TyrΨ(CH2NH)Asn-Trp-Asn-Ser-Phe-AzaGly-Leu-Arg(Me)-Phe-NH2] (H-[X1]WNSF[azaGly]L[Arg(Me)]F-NH2)
hOT7T175 [1]
  intracellular Ca ion level-increasing activity [specific activity to Metastin (1-54)]: 5

## Z-Phe-AzaGly-Leu-Arg(Me)-Trp-NH2 [Compound No. 367]
hOT7T175 [1]
  intracellular Ca ion level-increasing activity [specific activity to Metastin (1-54)]: ⅕

## 2-(Indol-3-yl)ethylcarbamoyl-Phe-AzaGly-Leu-Arg(Me)-Phe-NH2 [Compound No. 364]
hOT7T175 [1]
  intracellular Ca ion level-increasing activity [specific activity to Metastin (1-54)]: 1

## CNC(=N)NCCC[C@H](NC(=O)[C@H](CC(C)C)NC(=O)NNC(=O)[C@H](Cc1ccccc1)NC(=O)[C@H](CO)NC(=O)[C@H](CC(N)=O)NC(=O)[C@H](CC1CCCCC1)NC(=O)[C@@H](CC(N)=O)NC(=O)[C@H](N)Cc1cccnc1)C(=O)N[C@@H](Cc1ccccc1)C(N)=O [Compound No. 290, D-Pya(3)-D-Asn-Cha-Asn-Ser-Phe-AzaGly-Leu-Arg(Me)-Phe-NH2] (H-[d3Pal][dN][Cha]NSF[azaGly]L[Arg(Me)]F-NH2)
hOT7T175 [1]
  intracellular Ca ion level-increasing activity [specific activity to Metastin (1-54)]: 1

## Trifluoroacetyl-Phe-AzaGly-Leu-Arg(Me)-Trp-NH2 [Compound No. 448]
hOT7T175 [1]
  intracellular Ca ion level-increasing activity [specific activity to Metastin (1-54)]: 3

## CNC(=N)NCCC[C@H](NC(=O)[C@H](CC(C)C)NC(=O)NNC(=O)[C@H](Cc1ccccc1)NC(=O)[C@H](CO)NC(=O)[C@H](CC(N)=O)NC(=O)CCCc1c[nH]c2ccccc12)C(=O)N[C@@H](Cc1ccccc1)C(N)=O [Compound No. 267, 4-(3-Indolyl)butyryl-Asn-Ser-Phe-AzaGly-Leu-Arg(Me)-Phe-NH2] ({Butyryl(4-indol-3-yl)}-NSF[azaGly]L[Arg(Me)]F-NH2)
hOT7T175 [1]
  intracellular Ca ion level-increasing activity [specific activity to Metastin (1-54)]: 2

## Tos-F[azaGly]L[Arg(Me)]F-NH2 [Compound No. 349]
hOT7T175 [1]
  intracellular Ca ion level-increasing activity [specific activity to Metastin (1-54)]: ⅕

## 4-Pyridinecarbonyl-Phe-AzaGly-Leu-Orn-Trp-NH2 [Compound No. 477]
hOT7T175 [1]
  intracellular Ca ion level-increasing activity [specific activity to Metastin (1-54)]: ⅕

## Bz-A[azaGly]L[Arg(Me)]W-NH2 [Compound No. 392]
hOT7T175 [1]
  intracellular Ca ion level-increasing activity [specific activity to Metastin (1-54)]: ⅕

## 4-Pyridinecarbonyl-Phe-AzaGly-Leu-Arg(Me)-Nal(2)-NH2 [Compound No. 461]
hOT7T175 [1]
  intracellular Ca ion level-increasing activity [specific activity to Metastin (1-54)]: ⅓

## Glycoloyl-D-Tyr-D-Trp-Asn-Thr-Phe-AzaGly-Leu-Arg(Me)-Trp-NH2 (Glycoloyl-[dY][dW]NTF[azaGly]L[Arg(Me)]W-NH2) [Compound No. 681]
hOT7T175 [2]
  Specific Act. (EC50/MS10 EC50): 1.2

## Ac-D-Tyr-D-Trp-Asn-Thr-Tyr(Me)-AzaGly-Leu-Arg(Me)-Trp-NH2 (Ac-[dY][dW]NT[Tyr(Me)][azaGly]L[Arg(Me)]W-NH2; SMILES CNC(=N)NCCC[C@H](NC(=O)[C@H](CC(C)C)NC(=O)NNC(=O)[C@H](Cc1ccc(OC)cc1)NC(=O)[C@@H](NC(=O)[C@H](CC(N)=O)NC(=O)[C@@H](Cc1c[nH]c2ccccc12)NC(=O)[C@@H](Cc1ccc(O)cc1)NC(C)=O)[C@@H](C)O)C(=O)N[C@@H](Cc1c[nH]c2ccccc12)C(N)=O) [Compound No. 693]
hOT7T175 [2]
  Specific Act. (EC50/MS10 EC50): 1.5

## Ac-[dY][dW]NS(Me)F[azaGly]L[Arg(Me)]W-NH2 [Compound No. 580]
hOT7T175 [2]
  Specific Act. (EC50/MS10 EC50): 0.6

## D-Trp-Asn-Thr-Phe-AzaGly-Leu-Arg(Me)-Trp-NH2 ([dW]NTF[azaGly]L[Arg(Me)]W-NH2; N-terminus assumed; SMILES CNC(=N)NCCC[C@H](NC(=O)[C@H](CC(C)C)NC(=O)NNC(=O)[C@H](Cc1ccccc1)NC(=O)[C@@H](NC(=O)[C@H](CC(N)=O)NC(=O)[C@H](N)Cc1c[nH]c2ccccc12)[C@@H](C)O)C(=O)N[C@@H](Cc1c[nH]c2ccccc12)C(N)=O) [Compound No. 665]
hOT7T175 [2]
  Specific Act. (EC50/MS10 EC50): 1.1

## [dY][dW]NVF[azaGly]L[Arg(Me)]W-NH2 [Compound No. 539]
hOT7T175 [2]
  Specific Act. (EC50/MS10 EC50): 1.2

## [dR][dR][dR][GABA][dY][dW]NTF[azaGly]L[Arg(Me)]W-NH2 [Compound No. 557]
hOT7T175 [2]
  Specific Act. (EC50/MS10 EC50): 3.2

## Ac-[dY][dW]NTF[azaGly]LR(Tos)W-NH2 [Compound No. 604]
hOT7T175 [2]
  Specific Act. (EC50/MS10 EC50): 6.3

## Ac-[dY][dW]NT[2Nal][azaGly]L[Arg(Me)]W-NH2 [Compound No. 694]
hOT7T175 [2]
  Specific Act. (EC50/MS10 EC50): 1.7

## Ac-[dY][dW]NT[2Thi][azaGly]L[Arg(Me)]W-NH2 [Compound No. 695]
hOT7T175 [2]
  Specific Act. (EC50/MS10 EC50): 0.7

From patent US8778871B2 (Takeda Pharmaceutical Company Limited, priority 2004, dated 2014)
